One compound from ChEMBL document CHEMBL1221220, “Transport and signaling via the amino acid binding site of the yeast Gap1 amino acid transceptor” (Nat Chem Biol, 2009) can be followed below.

In assay [1] the test system is T1, General amino-acid permease GAP1 (Saccharomyces cerevisiae), P19145 [S398C].
T1 sequence (whole entry): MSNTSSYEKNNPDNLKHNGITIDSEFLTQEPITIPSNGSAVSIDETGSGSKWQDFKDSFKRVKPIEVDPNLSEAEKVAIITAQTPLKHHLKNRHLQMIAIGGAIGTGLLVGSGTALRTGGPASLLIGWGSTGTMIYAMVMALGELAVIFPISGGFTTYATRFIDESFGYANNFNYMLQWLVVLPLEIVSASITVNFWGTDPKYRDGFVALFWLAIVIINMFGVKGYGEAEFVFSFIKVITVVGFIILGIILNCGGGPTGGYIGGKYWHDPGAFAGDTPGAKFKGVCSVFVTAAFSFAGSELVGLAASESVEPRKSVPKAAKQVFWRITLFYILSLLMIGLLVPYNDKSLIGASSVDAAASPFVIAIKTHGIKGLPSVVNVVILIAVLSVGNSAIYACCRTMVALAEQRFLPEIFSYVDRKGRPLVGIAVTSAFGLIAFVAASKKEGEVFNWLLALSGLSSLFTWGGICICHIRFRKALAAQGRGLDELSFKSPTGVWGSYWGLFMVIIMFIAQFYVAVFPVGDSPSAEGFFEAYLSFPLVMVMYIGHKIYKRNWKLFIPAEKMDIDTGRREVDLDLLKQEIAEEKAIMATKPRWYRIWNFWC
The experiment in a line: Activation of yeast Gap1 S398C mutant-mediated amino acid uptake at 10 mM.

The test system of assay [2] is T2, General amino-acid permease GAP1 (Saccharomyces cerevisiae), P19145 [A403C].
T2 sequence (whole entry): T1 sequence (whole entry) with C398S, A403C
As to the kind of experiment: Induction of yeast Gap1 A403C mutant-mediated trehalose activation at 10 mM.

Assay [3] concerns T3, General amino-acid permease GAP1 (Saccharomyces cerevisiae), P19145 [A393C].
T3 sequence (whole entry): T1 sequence (whole entry) with A393C, C398S
As to the kind of experiment: Induction of yeast Gap1 A393C mutant-mediated […] activation at 2 mM in presence of 10 mM MTSEA treated before compound addition.

The test system of assay [4] is T4, General amino-acid permease GAP1 (Saccharomyces cerevisiae), P19145 [N391C].
T4 sequence (whole entry): T1 sequence (whole entry) with N391C, C398S
The experiment in a line: Induction of yeast Gap1 N391C mutant-mediated trehalose activation at 10 mM.

Numbering of substitutions follows the chain as printed. The source made the active and inactive calls. The calls are words filed in the database; no cut-off is given here.

With `NC(=O)NCCC[C@H](N)C(=O)O`, the outcome in assay [1], in assay [2] and in assay [4] was inactive. Also, in assay [3], the inhibition result was “Active”.
